# Experimental data published in PubChem BioAssay (NCI).
#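 Compound exposure: 48 hours, 5 concentrations, 96-well plates. At the GI50, growth is halved. TGI is the concentration that stops growth completely.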
# What was measured:
# Assay in all cases: NCI-60 cell line screen, 48 h
# SR leukemia = tested on: SR leukemia
# SK-OV-3 ovarian = tested on: SK-OV-3 ovarian
# HCT-15 colon = tested on: HCT-15 colon
# SN12C renal = tested on: SN12C renal
# MOLT-4 leukemia = tested on: MOLT-4 leukemia
# NCI-H226 lung = tested on: NCI-H226 lung
# LOX IMVI melanoma = tested on: LOX IMVI melanoma
# NCI-H522 lung = tested on: NCI-H522 lung
# SW-620 colon = tested on: SW-620 colon
# KM12 colon = tested on: KM12 colon
# CCRF-CEM leukemia = tested on: CCRF-CEM leukemia
# ACHN renal = tested on: ACHN renal
# CAKI-1 renal = tested on: CAKI-1 renal
# SF-268 CNS = tested on: SF-268 CNS
# SF-539 CNS = tested on: SF-539 CNS
# SNB-75 CNS = tested on: SNB-75 CNS
# UO-31 renal = tested on: UO-31 renal
# HCT-116 colon = tested on: HCT-116 colon
# M14 melanoma = tested on: M14 melanoma
# SK-MEL-5 melanoma = tested on: SK-MEL-5 melanoma
# OVCAR-5 ovarian = tested on: OVCAR-5 ovarian
# SK-MEL-2 melanoma = tested on: SK-MEL-2 melanoma
# SF-295 CNS = tested on: SF-295 CNS
# COLO 205 colon = tested on: COLO 205 colon
# HS 578T breast = tested on: HS 578T breast
# OVCAR-8 ovarian = tested on: OVCAR-8 ovarian
# PC-3 prostate = tested on: PC-3 prostate
# A498 renal = tested on: A498 renal
# HOP-62 NSCLC = tested on: HOP-62 NSCLC
# NCI-H460 lung = tested on: NCI-H460 lung
# K-562 leukemia = tested on: K-562 leukemia
# A549 NSCLC = tested on: A549 NSCLC
# IGROV1 ovarian = tested on: IGROV1 ovarian
# T-47D breast = tested on: T-47D breast
# OVCAR-4 ovarian = tested on: OVCAR-4 ovarian
# OVCAR-3 ovarian = tested on: OVCAR-3 ovarian
# NCI-H23 lung = tested on: NCI-H23 lung
# HL-60(TB) leukemia = tested on: HL-60(TB) leukemia
# RPMI-8226 leukemia = tested on: RPMI-8226 leukemia
# U251 CNS = tested on: U251 CNS
# MCF7 breast = tested on: MCF7 breast
# MDA-MB-231 breast = tested on: MDA-MB-231 breast
# NCI/ADR-RES ovarian = tested on: NCI/ADR-RES ovarian
# BT-549 breast = tested on: BT-549 breast
# SNB-19 CNS = tested on: SNB-19 CNS
# 786-0 renal = tested on: 786-0 renal
# UACC-257 melanoma = tested on: UACC-257 melanoma
# DU-145 prostate = tested on: DU-145 prostate
# MDA-MB-435 = tested on: MDA-MB-435
# SK-MEL-28 melanoma = tested on: SK-MEL-28 melanoma
# HT29 colon = tested on: HT29 colon
compound,measurement,setting,value
c1ccc(OCCC[P+](c2ccccc2)(c2ccccc2)c2ccccc2)cc1,GI50,SR leukemia,646 nM
same,TGI,SR leukemia,11.4 µM
same,GI50,SK-OV-3 ovarian,4.11 µM
same,TGI,SK-OV-3 ovarian,32.4 µM
same,GI50,HCT-15 colon,22.2 µM
same,TGI,HCT-15 colon,> 100 µM
same,GI50,SN12C renal,2610 nM
same,TGI,SN12C renal,12.5 µM
same,GI50,MOLT-4 leukemia,3.12 µM
same,TGI,MOLT-4 leukemia,13.7 µM
same,GI50,NCI-H226 lung,2300 nM
same,TGI,NCI-H226 lung,30.5 µM
same,GI50,LOX IMVI melanoma,2180 nM
same,TGI,LOX IMVI melanoma,6.75 µM
same,GI50,NCI-H522 lung,574 nM
same,TGI,NCI-H522 lung,4.24 µM
same,GI50,SW-620 colon,2220 nM
same,TGI,SW-620 colon,> 100 µM
same,GI50,KM12 colon,550 nM
same,TGI,KM12 colon,10.9 µM
same,GI50,CCRF-CEM leukemia,1850 nM
same,TGI,CCRF-CEM leukemia,18.1 µM
same,GI50,ACHN renal,8.94 µM
same,TGI,ACHN renal,52.8 µM
same,GI50,CAKI-1 renal,10.1 µM
same,TGI,CAKI-1 renal,27.9 µM
same,GI50,SF-268 CNS,3.82 µM
same,TGI,SF-268 CNS,19.2 µM
same,GI50,SF-539 CNS,3.07 µM
same,TGI,SF-539 CNS,18.3 µM
same,GI50,SNB-75 CNS,1270 nM
same,TGI,SNB-75 CNS,6.7 µM
same,GI50,UO-31 renal,13.9 µM
same,TGI,UO-31 renal,36.6 µM
same,GI50,HCT-116 colon,1420 nM
same,TGI,HCT-116 colon,13.4 µM
same,GI50,M14 melanoma,2530 nM
same,TGI,M14 melanoma,18.1 µM
same,GI50,SK-MEL-5 melanoma,438 nM
same,TGI,SK-MEL-5 melanoma,1740 nM
same,GI50,OVCAR-5 ovarian,4.09 µM
same,TGI,OVCAR-5 ovarian,> 100 µM
same,GI50,SK-MEL-2 melanoma,1560 nM
same,TGI,SK-MEL-2 melanoma,4.88 µM
same,GI50,SF-295 CNS,1970 nM
same,TGI,SF-295 CNS,7.77 µM
same,GI50,COLO 205 colon,970 nM
same,TGI,COLO 205 colon,3.47 µM
same,GI50,HS 578T breast,2690 nM
same,TGI,HS 578T breast,28.4 µM
same,GI50,OVCAR-8 ovarian,1830 nM
same,TGI,OVCAR-8 ovarian,12.8 µM
same,GI50,PC-3 prostate,580 nM
same,TGI,PC-3 prostate,6.17 µM
same,GI50,A498 renal,1940 nM
same,TGI,A498 renal,7.97 µM
same,GI50,HOP-62 NSCLC,4.55 µM
same,TGI,HOP-62 NSCLC,42.8 µM
same,GI50,NCI-H460 lung,2790 nM
same,TGI,NCI-H460 lung,13.5 µM
same,GI50,K-562 leukemia,634 nM
same,TGI,K-562 leukemia,16.3 µM
same,GI50,A549 NSCLC,2360 nM
same,TGI,A549 NSCLC,20.3 µM
same,GI50,IGROV1 ovarian,1420 nM
same,TGI,IGROV1 ovarian,17.4 µM
same,GI50,T-47D breast,383 nM
same,TGI,T-47D breast,29.5 µM
same,GI50,OVCAR-4 ovarian,486 nM
same,TGI,OVCAR-4 ovarian,17.7 µM
same,GI50,OVCAR-3 ovarian,1120 nM
same,TGI,OVCAR-3 ovarian,19.4 µM
same,GI50,NCI-H23 lung,1810 nM
same,TGI,NCI-H23 lung,10.9 µM
same,GI50,HL-60(TB) leukemia,285 nM
same,TGI,HL-60(TB) leukemia,832 nM
same,GI50,RPMI-8226 leukemia,303 nM
same,TGI,RPMI-8226 leukemia,3.66 µM
same,GI50,U251 CNS,1630 nM
same,TGI,U251 CNS,14 µM
same,GI50,MCF7 breast,677 nM
same,TGI,MCF7 breast,10.3 µM
same,GI50,MDA-MB-231 breast,2330 nM
same,TGI,MDA-MB-231 breast,11.2 µM
same,GI50,NCI/ADR-RES ovarian,> 100 µM
same,TGI,NCI/ADR-RES ovarian,> 100 µM
same,GI50,BT-549 breast,1420 nM
same,TGI,BT-549 breast,17.1 µM
same,GI50,SNB-19 CNS,2270 nM
same,TGI,SNB-19 CNS,17.8 µM
same,GI50,786-0 renal,4.14 µM
same,TGI,786-0 renal,20 µM
same,GI50,UACC-257 melanoma,381 nM
same,TGI,UACC-257 melanoma,5.71 µM
same,GI50,DU-145 prostate,3.19 µM
same,TGI,DU-145 prostate,19.6 µM
same,GI50,MDA-MB-435,481 nM
same,TGI,MDA-MB-435,10.3 µM
same,GI50,SK-MEL-28 melanoma,1090 nM
same,TGI,SK-MEL-28 melanoma,13.4 µM
same,GI50,HT29 colon,984 nM
same,TGI,HT29 colon,9.21 µM
